Key:
[1] = tested on: Agarabi CHO (ATCC® CRL-3440™); conditions: FDR corrected p-value <0.05 and methylation change greater than 25% between groups; cell pellets day 7
Method: Genomic DNA was purified from the collected cell pellets using DNeasy Blood & Tissue Kit (Qiagen) and was quantified using PicroGreen or NanoDrop™ 2000. The genomic DNA (500 ng) from the control and treatment set were used to prepare libraries for Whole Genome Bisulfite Sequencing (WGBS). The sequencing of the libraries was performed by a third party on a NovaSeq platform which generated 125 GB of data per sample.
Raw sequencing data were conducted quality control (fastqc) 1, sequencing adaptors trimming (TrimGalore) 2, and alignment with Bismark3. CMV promoter combined with CHOK1-GS (Cricetulus griseus) genome was used as a reference genome.
Bismark was also used for removing duplicated reads and extracting methylation counts from alignment output.
Since regulated methylation targets are most commonly clustered into short regions, DMRfinder4 was used to perform a modified single-linkage clustering of methylation sites.
Differential methylation analysis was performed using MethylKit5 between the control and treatment groups. Logistic regression was used to determine the differential methylation across all regions, and the sliding linear model (SLIM) 6 method to do FDR correction.

[2] = tested on: Agarabi CHO (ATCC® CRL-3440™); conditions: 120 μM added every 48 hrs, 7 day batch culture, CD FortiCHO + 8 mM L-glutamine
Method: For this experiment, a transgenic CHO cell line, Agarabi CHO (ATCC® CRL-3440™), was grown in CD FortiCHO medium supplemented with 8 mM L-glutamine at 37° C., 8% CO2, at a shaking speed of 130 RPM. Batch culture of 6 flasks was maintained for 7 days where 3 flasks represent technical replicates for the control set and 3 flasks represent technical replicates for the treatment set. The flasks were seeded with 3E5 viable cells/mL on day 0 and to induce oxidative stress, hydrogen peroxide was added every 48 hrs to the treatment set with a final concentration of 120 μM. Cell count, cell viability, and heterologous protein production were measured every 2 days and cell pellets were collected for both control and treatment set on day 7.

[3] = tested on: Agarabi CHO (ATCCR CRL-3440™); assay: Adaptation of CHO cells with media supplement, batch culture (cell count, viability, protein production); format: cell-based, Cricetulus griseus; conditions: 1 mg/L, adapted for 2 weeks, 7 day batch culture, CD FortiCHO + 8 mM L-glutamine
Method: For this experiment, a transgenic CHO cell line, Agarabi CHO (ATCCR CRL-3440™), was adapted for 2 weeks in CD FortiCHO medium supplemented with 8 mM L-glutamine & 1 mg/L human insulin-like growth factor 1 (IGF-1) at 37° C., 8% CO2, at a shaking speed of 130 RPM. Batch culture of 6 flasks was maintained for 7 days where 3 flasks represent technical replicates for the control set (without IGF-1 adaptation) and 3 flasks represent technical replicates for the IGF-1 adapted set. The flasks were seeded with 3E5 viable cells/mL on day 0 and 1 mg/L Insulin Growth Factor was added to the adapted set. Cell count, cell viability, and protein production were measured every 2 days and cell pellets were collected for both control and treatment set on day 7.

[4] = tested on: Agarabi CHO (ATCCR CRL-3440™); assay: WGBS differential methylation analysis, IGF-1 adapted vs control; format: cell-based, Cricetulus griseus; conditions: FDR corrected p-value <0.05 and methylation change greater than 25% between groups; cell pellets day 7
Method: With a maximum distance between CpG sites of 100 bp, 2048904 genomic regions were found for IGF-1 adapted samples.
Regions with FDR corrected p-value <0.05 and methylation change greater than 25% between groups were determined as differentially methylated regions (DMRs), which was 289 for IGF-1 adapted samples listed in Table 2.

| Molecule | number of differentially methylated regions (DMRs) [1] | cell viability compared to control set [2] | growth rate compared to control set [2] | heterologous protein productivity compared to control set [2] | growth rate compared to control set [3] | heterologous protein productivity compared to control set [3] | viability compared to control set [3] | number of differentially methylated regions (DMRs) [4] |
| --- | --- | --- | --- | --- | --- | --- | --- | --- |
| OO [hydrogen peroxide] | 122 | reduced | reduced | slight increase |  |  |  |  |
| IGF-1: human insulin-like growth factor 1, media supplement for CHO cells |  |  |  |  | no significant effect | doubled | no significant effect | 289 |

Reference: US20260250741A1, “DEVELOPMENT OF CELL MEDIUM AND FEED ON MAMMALIAN CELLS” (Evonik Operations GmbH, priority 2023, published 2026)
